Drawing on patent publication US9440972B2, “Pyrido[2,3-d]pyrimidine-2,4(1 H,3H)-dione derivatives” (Hydra Biosciences, Inc., priority 2014, dated 2016), this text covers IC50 for 18 compounds.

The target in the assay is T1, TRPC5 channel (Homo sapiens, UniProt Q9UL62).
T1 construct: expressed in transfected cells; host or cells: HEK293/TREx (Invitrogen), tetracycline-induced
T1 sequence (Q9UL62 1-973): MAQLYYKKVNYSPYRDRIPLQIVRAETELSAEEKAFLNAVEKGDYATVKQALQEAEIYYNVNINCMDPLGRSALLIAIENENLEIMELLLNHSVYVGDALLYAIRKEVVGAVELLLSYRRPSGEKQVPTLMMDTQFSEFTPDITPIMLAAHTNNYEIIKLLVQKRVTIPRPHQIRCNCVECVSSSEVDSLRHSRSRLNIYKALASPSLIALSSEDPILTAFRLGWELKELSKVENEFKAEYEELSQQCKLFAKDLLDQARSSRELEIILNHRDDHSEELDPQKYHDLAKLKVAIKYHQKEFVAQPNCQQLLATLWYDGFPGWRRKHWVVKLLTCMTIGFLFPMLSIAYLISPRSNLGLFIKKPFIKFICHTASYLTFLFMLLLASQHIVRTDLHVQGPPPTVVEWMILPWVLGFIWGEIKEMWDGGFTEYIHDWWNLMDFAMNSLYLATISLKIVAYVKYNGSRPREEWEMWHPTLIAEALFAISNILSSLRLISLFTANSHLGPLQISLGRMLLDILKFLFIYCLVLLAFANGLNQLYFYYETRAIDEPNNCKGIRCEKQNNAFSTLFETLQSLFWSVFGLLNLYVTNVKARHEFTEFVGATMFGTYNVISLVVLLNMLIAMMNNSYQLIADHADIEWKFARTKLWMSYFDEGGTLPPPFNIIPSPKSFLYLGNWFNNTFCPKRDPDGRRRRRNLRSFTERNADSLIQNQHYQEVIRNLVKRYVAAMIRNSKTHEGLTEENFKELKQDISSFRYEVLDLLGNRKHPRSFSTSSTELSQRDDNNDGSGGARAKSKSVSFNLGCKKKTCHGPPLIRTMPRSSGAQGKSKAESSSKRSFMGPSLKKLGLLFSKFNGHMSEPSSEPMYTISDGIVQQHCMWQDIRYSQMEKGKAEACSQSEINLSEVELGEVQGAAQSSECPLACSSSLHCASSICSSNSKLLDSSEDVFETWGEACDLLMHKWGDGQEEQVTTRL
As to the kind of experiment: High throughput screening assay: Fluo4 cell-based fluorescence assay of intracellular Ca2+ rise. The settings on record: HEK293/TREx cells inducibly expressing TRPC5, 0.027-20 μM in triplicate, NF = no IC50 curve could be fit. From the text:
The assay depended on detection of the rise in intracellular Ca2+ concentration ([Ca2+]i) following channel activation in cells inducibly expressing the TRPC5 channel. Ca2+ rise was quantified with the use of fluorescent Ca2+ indicators that were loaded into cells and thereafter indicated the [Ca2+]i Ca2+ influx followed activation of the TRPC5 channel. Compounds inhibiting the [Ca2+]i rise were considered hits for further investigation.
The commercially available HEK293/TREx line (Invitrogen) was stably transfected with a TRPC5 construct and screened by conventional calcium imaging to find clones with TRPC5 expression following stimulation with 1 μg/ml tetracycline. These cells were maintained in the growth medium recommended by the manufacturer supplemented with 100 μg/ml hygromycin to promote retention of the TRPC5 construct. After growing to near confluency, cells were plated at a density of ˜35,000 cells/well in 384 well CellBind plates (Corning) in the presence of 1 μg/ml tetracycline, and allowed to grow for 20-30 hrs. A nearly confluent monolayer resulted. Cells were then loaded with Ca2+ dye: Fura-2/AM or Fluo4/AM was added to the wells to a final concentration of 4 μM or 0.5 μM, respectively, and incubated for 80 min or 60 min, respectively, at room temperature. Supernatant was then removed from the cells by inverting plates with a sharp flick, and 25 μl Hank's Balanced Salt Solution (HBSS; 0.185 g/l D-glucose, 0.9767 g/l MgS04 (anhydrous), 0.4 g/l KCl, 0.06 g/l KH2PO4 (anhydrous), 0.35 g/l NaHCO3, 8.0 g/l NaCl, and 0.04788 g/l Na2HPO4 (anhydrous); pH 7.4) was then added to each well. Following ˜0.5 hour for recovery from loading, cells were assayed using the Hamamatsu FDSS 6000 system, which permitted illumination alternately at 340 nm and 380 nm for Fura-2 experiments, or at 485 nm for Fluo4 experiments. Frames were acquired at a rate of 0.2 Hz. During the assay, the plates were continuously vortexed, with pipette mixing of wells following addition of each reagent. For the screening assay, 26 μl of a diluted compound stock (at 50 μM) was added to each well for 2 minutes following the collection of a short (4 frame) baseline. 13 μl 62 mM high-Ca2+Ringer solution (4.17 ml of normal ringer (with 2 mM Ca2+) plus 5.83 ml of isotonic calcium ringer (105 mM Ca2+; in this ringer all sodium has been replaced with calcium)) was then added to each well, achieving a final concentration of 14 mM Ca2+ and 10 μM test compound. Data was collected for ˜3 minutes following addition of high Ca2+Ringer, where the fluorescent intensity (for Fluo4) and the F340/F380 ratio (for Fura-2) were proportional to the [Ca2+]i Negative controls consisted of HEK293/TREx TRPC5 cells exposed to high Ca2+ solution, but no compound. Positive control conditions consisted of addition of 2-APB, a promiscuous blocker of TRPC5 and other channels, to columns 23 and 24 of the plates, to a final concentration of 200 μM. These controls defined a screening window, and “hits” were defined as those compounds inhibiting the fluorescence response by at least 40%. IC50 values were determined for compounds defined as “hits.” The Fluo4 cell-based fluorescence assay was used to determine the intracellular Ca2+ concentration in the presence of varying drug concentration. Final concentrations of compounds tested were 20 μM, 6.667 μM, 2.222 μM, 0.741 μM, 0.247 μM, 0.082 μM, and 0.027 μM. Compounds were tested in triplicate at all concentrations. Standard software was used to fit IC50 curves. A value of NF was assigned when no IC50 curves could not be fit.
Additionally or alternatively, efficacy can be represented as % inhibition in the presence (of a given concentration of compound) versus the absence of compound or in comparison to a control compound. For example, efficacy can be represented as % inhibition of ion flux in the presence versus the absence of compound.

Bounds are passed on as bounds.

By IC50 is commonly meant the concentration needed to halve the response being measured. For the compound `Cn1c(=O)n(CCCO)c(=O)c2c(Cc3ccc(Cl)cc3)c(Oc3cccnc3)cnc21` [Compound 14, 5-(4-chlorobenzyl)-3-(3-hydroxypropyl)-1-methyl-6-(pyridin-3-yloxy)pyrido[2,3-d]pyrimidine-2,4(1H,3H)-dione], the IC50 worked out at 3250 nM.

Turning to `CC(C)CC(O)c1c(Oc2cccc(OC(F)(F)F)c2)cnc2c1c(=O)n(CCCO)c(=O)n2C` (stereo not drawn) [Compound 44, 5-(1-hydroxy-3-methylbutyl)-3-(3-hydroxypropyl)-1-methyl-6-(3-(trifluoromethoxy)phenoxy)pyrido[2,3-d]pyrimidine-2,4(1H,3H)-dione], half-maximal inhibition (IC50) was put at 3450 nM.

With `CC(C)CCc1c(Oc2cccc(Cl)c2)cnc2c1c(=O)n(CCCO)c(=O)n2C` [Compound 48, 6-(3-chlorophenoxy)-3-(3-hydroxypropyl)-5-isopentyl-1-methylpyrido[2,3-d]pyrimidine-2,4(1H,3H)-dione], the IC50 was more than 10000 nM.

The compound `CC(C)c1cccc(Oc2cnc3c(c2Cc2ccccc2)c(=O)n(CCCO)c(=O)n3C)c1` [Compound 28, 5-benzyl-3-(3-hydroxypropyl)-6-(3-isopropylphenoxy)-1-methylpyrido[2,3-d]pyrimidine-2,4(1H,3H)-dione] had an IC50 of 28.5 nM.

`Cn1c(=O)n(CCCO)c(=O)c2c(Cc3ccc(C(F)(F)F)nc3)c(Oc3cccc(OC(F)(F)F)c3)cnc21` [Compound 32, 3-(3-hydroxypropyl)-1-methyl-6-(3-(trifluoromethoxy)phenoxy)-5-((6-(trifluoromethyl)pyridin-3-yl)methyl)pyrido[2,3-d]pyrimidine-2,4(1H,3H)-dione] yielded an IC50 of 350 nM.

Compound `CC(C)c1ccccc1-c1cnc2c(c1C(O)c1ccc(Cl)cc1)c(=O)n(CCCO)c(=O)n2C` (stereo not drawn) [Compound 20, 5-((4-chlorophenyl)(hydroxy)methyl)-3-(3-hydroxypropyl)-6-(2-isopropylphenyl)-1-methylpyrido[2,3-d]pyrimidine-2,4(1H,3H)-dione] displayed an IC50 of 977 nM.

`Cn1c(=O)n(CCCO)c(=O)c2c(Cc3ccc(C(F)(F)F)nc3)c(Oc3cccc(C(F)(F)F)c3)cnc21` [Compound 24, 3-(3-hydroxypropyl)-1-methyl-6-(3-(trifluoromethyl)phenoxy)-5-((6-(trifluoromethyl)pyridin-3-yl)methyl)pyrido[2,3-d]pyrimidine-2,4(1H,3H)-dione] showed an IC50 of 1340 nM.

The compound `CC(C)c1ccccc1Oc1cnc2c(c1Cc1ccc(F)cc1)c(=O)n(CCCO)c(=O)n2C` [Compound 41, 5-(4-fluorobenzyl)-3-(3-hydroxypropyl)-6-(2-isopropylphenoxy)-1-methylpyrido[2,3-d]pyrimidine-2,4(1H,3H)-dione] returned an IC50 of 33.8 nM.

As to `CC(C)CCc1c(Oc2cccc(OC(F)(F)F)c2)cnc2c1c(=O)n(CCCO)c(=O)n2C` [Compound 49, 3-(3-hydroxypropyl)-5-isopentyl-1-methyl-6-(3-(trifluoromethoxy)phenoxy)pyrido[2,3-d]pyrimidine-2,4(1H,3H)-dione], the IC50 is more than 20000 nM.

Take `Cn1c(=O)n(CCCO)c(=O)c2c(Cc3ccc(Cl)cc3)c(Oc3cncc(F)c3)cnc21` [Compound 15, 5-(4-chlorobenzyl)-6-((5-fluoropyridin-3-yl)oxy)-3-(3-hydroxypropyl)-1-methylpyrido[2,3-d]pyrimidine-2,4(1H,3H)-dione]: the IC50 was determined as 7530 nM.

The compound `Cn1c(=O)n(CCCO)c(=O)c2c(Cc3ccc(Cl)cc3)c(Oc3cccc(Cl)c3)cnc21` [Compound 26, 5-(4-chlorobenzyl)-6-(3-chlorophenoxy)-3-(3-hydroxypropyl)-1-methylpyrido[2,3-d]pyrimidine-2,4(1H,3H)-dione] registered an IC50 of 1290 nM.

For the compound `CC(C)CCc1c(OC(C)C)cnc2c1c(=O)n(CCCO)c(=O)n2C` [Compound 37, 3-(3-hydroxypropyl)-5-isopentyl-6-isopropoxy-1-methylpyrido[2,3-d]pyrimidine-2,4(1H,3H)-dione], the IC50 worked out at 1160 nM.

As to `Cn1c(=O)n(CCCO)c(=O)c2c(Cc3ccc(C(F)(F)F)cc3)c(Oc3cccc(C(F)(F)F)c3)cnc21` [Compound 22, 3-(3-hydroxypropyl)-1-methyl-5-(4-(trifluoromethyl)benzyl)-6-(3-(trifluoromethyl)phenoxy)pyrido[2,3-d]pyrimidine-2,4(1H,3H)-dione], the IC50 is 180 nM.

In turn, `CC(C)CCc1c(Oc2cccc(C(F)(F)F)c2)cnc2c1c(=O)n(CCCO)c(=O)n2C` [Compound 46, 3-(3-hydroxypropyl)-5-isopentyl-1-methyl-6-(3-(trifluoromethyl)phenoxy)pyrido[2,3-d]pyrimidine-2,4(1H,3H)-dione] had an IC50 of more than 20000 nM.

Turning to `Cn1c(=O)n(CCCO)c(=O)c2c(Cc3ccc(Cl)cc3)c(Oc3cncc(Cl)c3)cnc21` [Compound 16, 5-(4-chlorobenzyl)-6-((5-chloropyridin-3-yl)oxy)-3-(3-hydroxypropyl)-1-methylpyrido[2,3-d]pyrimidine-2,4(1H,3H)-dione], the IC50 was determined as 3740 nM.

Compound `Cn1c(=O)n(CCCO)c(=O)c2c(Cc3ccc(Cl)cc3)c(-c3cccc(F)c3)cnc21` [Compound 25, 5-(4-chlorobenzyl)-6-(3-fluorophenyl)-3-(3-hydroxypropyl)-1-methylpyrido[2,3-d]pyrimidine-2,4(1H,3H)-dione] showed a 50% inhibitory concentration (IC50) of 739 nM.

In turn, `CC(C)c1ccccc1-c1cnc2c(c1Cc1ccc(Cl)cc1)c(=O)n(CCCO)c(=O)n2C` [Compound 38, 5-(4-chlorobenzyl)-3-(3-hydroxypropyl)-6-(2-isopropylphenyl)-1-methylpyrido[2,3-d]pyrimidine-2,4(1H,3H)-dione] gave an IC50 of 215 nM.

`Cn1c(=O)n(CCCO)c(=O)c2c(Cc3ccc(C(F)(F)F)nc3)c(Oc3cccc(Cl)c3)cnc21` [Compound 43, 6-(3-chlorophenoxy)-3-(3-hydroxypropyl)-1-methyl-5-((6-(trifluoromethyl)pyridin-3-yl)methyl)pyrido[2,3-d]pyrimidine-2,4(1H,3H)-dione] registered an IC50 of 1420 nM.
